Experimental data from patent US11325913B2, “Compounds and methods for the treatment of malaria” (THE BROAD INSTITUTE, INC., priority 2013, dated 2022).
pEC50: −log10 of the molar value.

system: P. falciparum Dd2; assay: Activity against the Dd2 strain of P. falciparum (SYBR Green I, 72 h); assay type: cell-based; conditions: Plasmodium falciparum, DD2, 72 h, P. falciparum Dd2, 72 h incubation
Procedure: The Dd2 strain of P. falciparum was cultured in complete medium (RPMI with L-glutamine, 4.3% heat-inactivated O-positive human serum, 2.08 mg/ml albumax, 0.013 mg/ml hypoxanthine, 1.17 mg/ml glucose, 0.18% NaHCO3, 0.031 M Hepes, 2.60 mM NaOH, and 0.043 mg/ml gentamicin) until the parasitemia reached 3-8%. Parasitemia was determined by checking at least 500 red blood cells from a Giemsa-stained blood smear. The Dd2 cultures along with tested O-positive red blood cells were centrifuged at room temperature at 2,000 rpm for 5 minutes using an Eppendorf centrifuge 5810R with an A-4-81 rotor. The medium was aspirated off. For the compound screening, a parasite dilution at a 1% parasitemia and 1.0% hematocrit was created with screening medium (RPMI with L-glutamine, 4.16 mg/ml albumax II, 0.013 mg/ml hypoxanthine, 1.73 mg/ml glucose, 0.18% NaHCO3, 0.031 M Hepes, 2.60 mM NaOH, and 0.043 mg/ml gentamicin). The suspension was gassed with 93% nitrogen, 4% carbon dioxide, and 3% oxygen and placed at 37° C. until needed. Using a liquid dispenser, 20 μl of screening medium was dispensed into 384-well, black, clear-bottom plates. With a PinTool, 100 nl of compounds dissolved in DMSO was transferred into the assay plates along with control compound (mefloquine). Next, 30 μl of the parasite suspension in screening medium was then dispensed into the assay plates such that the final parasitemia was 1% and the final hematocrit was 1.0%. Final concentration of DMSO was 0.125%. Mefloquine at a final concentration of 20 μM and DMSO at a final concentration of 0.125% were used within the assay plates to serve as background and baseline controls, respectively. The assay plates were transferred to incubators (93% nitrogen, 4% carbon dioxide, and 3% oxygen during the 72 h incubation at 37° C.). Ten microliters of detection reagent consisting of 10×SYBR Green I (Invitrogen; supplied in 10,000× concentration) in lysis buffer (20 mM Tris-HCl, 5 mM EDTA, 0.16% Saponin wt/vol, 1.6% Triton X vol/vol) was dispensed into the assay plates. For optimal staining, the assay plates were left at room temperature for 24 h in the dark. The assay plates were read by using an Envision (PerkinElmer) reader, with 505 dichroic mirrors with 485-nm excitation and 530-nm emission settings, and the plate reads were from the bottom.
By following the above-described protocol, the 50% effective concentration (EC50) for compounds 1-95 was measured against P. falciparum Dd2 and the results are shown in Table 2: […]

Structure (SMILES) | pEC50
Cc1ccc(-c2ccc([C@@H]3[C@H](CO)N4CCCCN(S(=O)(=O)c5cccc(C)c5)C[C@@H]34)cc2)cc1 [Compound 26, ((8R,9S,10R)-9-(4′-methyl-[1,1′-biphenyl]-4-yl)-6-(m-tolylsulfonyl)-1,6-diazabicyclo[6.2.0]decan-10-yl)methanol] | 6.02
O=C(Nc1cccc(F)c1)N1CCCCN2[C@@H](CO)[C@H](c3ccc(C#Cc4cccnc4)cc3)[C@@H]2C1 [Compound 28, (8R,9R,10R)-N-(3-fluorophenyl)-10-(hydroxymethyl)-9-(4-(pyridin-3-ylethynyl)phenyl)-1,6-diazabicyclo[6.2.0] decane-6-carboxamide] | 6.43
COc1ccc(C#Cc2ccc([C@@H]3[C@H](CO)N4CCCCN(C(=O)Nc5ccccc5F)C[C@@H]34)cc2)cc1 [Compound 29, (8R,9S,10R)-N-(2-fluorophenyl)-10-(hydroxymethyl)-9-(4-((4-methoxyphenyl)ethynyl)phenyl)-1,6-diazabicyclo[6.2.0] decane-6-carboxamide] | 6.05
COc1ccc(NC(=O)N2CCCCN3[C@H](CO)C(c4ccccc4)[C@@H]3C2)cc1 (stereo partly drawn) [Compound 31, (8R,10S)-10-(hydroxymethyl)-N-(4-methoxyphenyl)-9-phenyl-1,6-diazabicyclo[6.2.0] decane-6-carboxamide] | 5.74
COc1ccc(NC(=O)N2CCCCN3[C@H](CN4CCC(C)(O)CC4)[C@H](c4ccc(C#Cc5ccccc5)cc4)[C@@H]3C2)cc1 [Compound 33, (8R,9S,10S)-10-[(4-hydroxy-4-methylpiperidin-1-yl)methyl]-N-(4-methoxyphenyl)-9-[4-(2-phenylethynyl)phenyl]-1,6-diazabicyclo[6.2.0] decane-6-carboxamide] | 5.63
COc1ccc(NC(=O)N2CCN3[C@H](CO)[C@H](c4ccc(C#Cc5ccccc5)cc4)[C@@H]3C2)cc1 [Compound 34, (6R,7R,8S)-8-(hydroxymethyl)-N-(4-methoxyphenyl)-7-[4-(2-phenylethynyl)phenyl]-1,4-diazabicyclo[4.2.0] octane-4-carboxamide] | 5.33
COc1ccc(C(=O)N2CCCCN3[C@H](CO)[C@H](c4ccc(C#Cc5ccccc5)cc4)[C@@H]3C2)cc1 [Compound 36, [(8R,9R,10S)-6-(4-methoxybenzoyl)-9-[4-(2-phenylethynyl)phenyl]-1,6-diazabicyclo[6.2.0]decan-10-yl]methanol] | 5.10
COc1ccc(NC(=O)N2CCCCN3[C@H](CO)[C@H](c4ccc(-c5csc(-c6ccccc6)n5)cc4)[C@@H]3C2)cc1 [Compound 39, (8R,9R,10S)-10-(hydroxymethyl)-N-(4-methoxyphenyl)-9-[4-(2-phenyl-1,3-thiazol-4-yl)phenyl]-1,6-diazabicyclo[6.2.0] decane-6-carboxamide] | 5.29
COc1ccc(S(=O)(=O)N2CCCCN3[C@H](CO)[C@H](c4ccc(C#Cc5ccccc5)cc4)[C@@H]3C2)cc1 [Compound 40, [(8R,9R,10S)-6-(4-methoxybenzene-sulfonyl)-9-[4-(2-phenylethynyl)phenyl]-1,6-diazabicyclo[6.2.0]decan-10-yl]methanol] | 5.29
COc1ccc(NC(=O)N2CCCCN3[C@H](CO)[C@H](c4ccc(-c5ccccc5)cc4)[C@@H]3C2)cc1 [Compound 41, (8R,9R,10S)-10-(hydroxymethyl)-N-(4-methoxyphenyl)-9-(4-phenylphenyl)-1,6-diazabicyclo[6.2.0] decane-6-carboxamide] | 5.01
COc1ccc(NC(=O)N2CCCCN3[C@H](CO)[C@H](c4ccc(-c5ccc(F)cc5)cc4)[C@@H]3C2)cc1 [Compound 42, (8R,9R,10S)-9-[4-(4-fluorophenyl)phenyl]-10-(hydroxymethyl)-N-(4-methoxyphenyl)-1,6-diazabicyclo[6.2.0] decane-6-carboxamide] | 5.01
O=C(NC1CCCCC1)N1CCCCN2[C@H](CO)[C@H](c3ccc(C#Cc4ccccc4)cc3)[C@@H]2C1 [Compound 44, (8R,9R,10S)-N-cyclohexyl-10-(hydroxymethyl)-9-[4-(2-phenylethynyl)phenyl]-1,6-diazabicyclo[6.2.0] decane-6-carboxamide] | 5.96
COc1ccc(NC(=O)N2CCCCN3[C@H](CO)[C@H](c4ccc(C#CC5CCCCC5)cc4)[C@@H]3C2)cc1 [Compound 45, (8R,9R,10S)-9-[4-(2-cyclohexylethynyl)phenyl]-10-(hydroxymethyl)-N-(4-methoxyphenyl)-1,6-diazabicyclo[6.2.0] decane-6-carboxamide] | 6.07
COc1ccc(NC(=O)N2CCCCN3[C@H](CO)[C@H](c4ccc(-c5ccccc5F)cc4)[C@@H]3C2)cc1 [Compound 46, (8R,9R,10S)-9-[4-(2-fluorophenyl)phenyl]-10-(hydroxymethyl)-N-(4-methoxyphenyl)-1,6-diazabicyclo[6.2.0] decane-6-carboxamide] | 4.75
O=C(Nc1ccncc1)N1CCCCN2[C@H](CO)[C@H](c3ccc(C#Cc4ccccc4)cc3)[C@@H]2C1 [Compound 50, (8R,9R,10S)-10-(hydroxymethyl)-9-[4-(2-phenylethynyl)phenyl]-N-(pyridin-4-yl)-1,6-diazabicyclo[6.2.0] decane-6-carboxamide] | 5.91

Now those with a higher pEC50, led by results:

pEC50 | Structure (SMILES)
6.64 | COc1ccc(NC(=O)N2CCCCN3C[C@H](c4ccc(C#Cc5ccccn5)cc4)[C@@H]3C2)cc1 [Compound 43, (8R,9S)-N-(4-methoxyphenyl)-9-{4-[2-(pyridin-2-yl)ethynyl]phenyl}-1,6-diazabicyclo[6.2.0] decane-6-carboxamide]
6.80 | COc1ccc(NC(=O)N2CCCCN3[C@H](CN4CCN(C)CC4)[C@H](c4ccc(C#Cc5ccccc5)cc4)[C@@H]3C2)cc1 [Compound 32, (8R,9S,10S)-N-(4-methoxyphenyl)-10-[(4-methylpiperazin-1-yl)methyl]-9-[4-(2-phenylethynyl)phenyl]-1,6-diazabicyclo[6.2.0] decane-6-carboxamide]
7.19 | COc1ccc(NC(=O)N2CCCCN3[C@H](COCC(=O)O)[C@H](c4ccc(C#Cc5ccccc5)cc4)[C@@H]3C2)cc1 [Compound 35, 2-{[(8R,9R,10S)-6-[(4-methoxyphenyl)carbamoyl]-9-[4-(2-phenylethynyl)phenyl]-1,6-diazabicyclo[6.2.0]decan-10-yl]methoxy}acetic acid]
7.19 | O=C(Nc1ccccc1F)N1CCCCN2[C@H](CO)[C@H](c3ccc(C#Cc4ccccc4)cc3)[C@@H]2C1 [Compound 49, (8R,9R,10S)-N-(2-fluorophenyl)-10-(hydroxymethyl)-9-[4-(2-phenylethynyl)phenyl]-1,6-diazabicyclo[6.2.0] decane-6-carboxamide]
7.38 | O=C(Nc1ccccc1)N1CCCCN2[C@H](CO)[C@H](c3ccc(C#Cc4ccccc4)cc3)[C@@H]2C1 [Compound 30, (8R,9R,10S)-10-(hydroxymethyl)-N-phenyl-9-(4-(phenylethynyl)phenyl)-1,6-diazabicyclo[6.2.0] decane-6-carboxamide]
7.44 | COc1ccc(NC(=O)N2CCCCN3[C@@H](CN)[C@H](c4ccc(C#Cc5ccccc5)cc4)[C@@H]3C2)cc1 [Compound 48, (8R,9S,10R)-10-(aminomethyl)-N-(4-methoxyphenyl)-9-[4-(2-phenylethynyl)phenyl]-1,6-diazabicyclo[6.2.0] decane-6-carboxamide]
7.64 | COc1ccc(NC(=O)N2C/C=C\CN3[C@H](CO)[C@H](c4ccc(C#Cc5ccccc5)cc4)[C@@H]3C2)cc1 [Compound 47, (8R,9R,10S)-10-(hydroxymethyl)-N-(4-methoxyphenyl)-9-[4-(2-phenylethynyl)phenyl]-1,6-diazabicyclo[6.2.0]dec-3-ene-6-carboxamide]
7.82 | COc1ccc(NC(=O)N2CCCCN3[C@H](CO)[C@H](c4ccc(C#Cc5cccc(F)c5)cc4)[C@@H]3C2)cc1 [Compound 38, (8R,9R,10S)-9-{4-[2-(3-fluorophenyl)ethynyl]phenyl}-10-(hydroxymethyl)-N-(4-methoxyphenyl)-1,6-diazabicyclo[6.2.0] decane-6-carboxamide]
7.96 | COc1ccc(NC(=O)N2CCCCN3[C@H](CO)[C@H](c4ccc(C#Cc5ccc(F)cc5)cc4)[C@@H]3C2)cc1 [Compound 51, (8R,9R,10S)-9-{4-[2-(4-fluorophenyl)ethynyl]phenyl}-10-(hydroxymethyl)-N-(4-methoxyphenyl)-1,6-diazabicyclo[6.2.0] decane-6-carboxamide]
